This is an account of results in patent US6300112A, “β-xylosidase, nucleotide sequence encoding it, and use thereof” (Danisco Ingredients A.S (Danisco A/S), priority 1995, dated 2001).

Assay [1] concerns the target Aspergillus niger β-xylosidase according to Rodionova et al. (1983). Particulars: β-xyl (Rodionova), comparison enzyme; read-out: inhibition Ki (mM xylosc); cited from earlier work.
The target of assay [2] is T1, Aspergillus niger β-xylosidase I (X-I, xylD), SEQ ID NO. 1 (Aspergillus niger, UniProt O00089).
T1 construct: Mono Q peak I
T1 sequence (O00089 27-804): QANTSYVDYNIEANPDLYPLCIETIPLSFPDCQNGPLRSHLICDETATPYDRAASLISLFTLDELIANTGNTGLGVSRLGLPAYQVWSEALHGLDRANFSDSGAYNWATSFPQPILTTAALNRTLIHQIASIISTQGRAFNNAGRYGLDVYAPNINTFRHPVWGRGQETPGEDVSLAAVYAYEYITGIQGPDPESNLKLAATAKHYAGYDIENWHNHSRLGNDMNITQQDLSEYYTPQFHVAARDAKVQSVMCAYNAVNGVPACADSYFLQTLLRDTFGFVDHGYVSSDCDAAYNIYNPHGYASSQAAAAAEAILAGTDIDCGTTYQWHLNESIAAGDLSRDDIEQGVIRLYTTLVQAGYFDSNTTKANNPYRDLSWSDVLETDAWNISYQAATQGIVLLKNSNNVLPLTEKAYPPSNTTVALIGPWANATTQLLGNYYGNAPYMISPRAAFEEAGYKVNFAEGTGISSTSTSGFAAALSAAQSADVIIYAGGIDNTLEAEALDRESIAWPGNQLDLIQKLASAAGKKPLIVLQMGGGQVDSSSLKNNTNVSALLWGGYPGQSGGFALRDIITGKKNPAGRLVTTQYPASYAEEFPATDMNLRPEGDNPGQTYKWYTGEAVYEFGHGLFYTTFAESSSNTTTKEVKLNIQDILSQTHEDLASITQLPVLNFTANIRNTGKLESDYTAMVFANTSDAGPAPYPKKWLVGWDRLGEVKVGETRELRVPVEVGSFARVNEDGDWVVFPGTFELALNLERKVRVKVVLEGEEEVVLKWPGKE
The experiment in a line: Inhibition of β-xylosidase X-I by xylose. In kind it is biochemical. The following applies: β-xylosidase X-I of the invention; read-out: inhibition Ki (mM xylosc). Here is the method: (§1) Table A summarises the specificity pattern of two β-xylosidases X-I and X-II of the invention--presumably differing only in their glycosylation pattern, not in their amino acid sequence--and of the β-xylosidase reported by Rodionova et al., and their inhibition by xylose.
(§2) DEAE-Sephadex A-50 was equilibrated in 50 mM sodium acetate buffer pH 5.0 and was added to the culture filtrate. After 30-60 minutes of stirring at 4° C., the DEAE-Sephadex together with the culture filtrate were passed through a funnel with a glass filter holder and the DEAE-Sephadex A-50 was transferred to a column. […] Fractions containing β-xylosidase activity, as was detected using the chromogenic substrate 4-methylumbelliferyl-β-D-xyloside (detects β-xylosidases and endo-xylanases) (Sigma #M7008), were pooled and desalted by dialysis against Millipore water and subsequently dialysed against 20 mM piperazine-HCl buffer pH 5.0. […] The specific activity of both β-xylosidase I and II towards the artificial substrate PNP-X was determined as described by Rodionova et al., 1983, to be respectively 60.2 and 60.9 U/mg protein. In addition the activity against PNP-β-D-glucopyranoside (Sigma #N7006) was determined to be 0.2 and 0.3 U/mg, against PNP-β-D-galactopyranoside (Sigma #N1252) 0.0 and 0.0 U/mg and against PNP-β-L-arabinofuranoside(Sigma #N3641) 2.8 and 3.4 U/mg respectively for β-xylosidase I and II.

Assay [3] addresses T2, Aspergillus niger β-xylosidase II (X-II, xylD), SEQ ID NO. 1 (Aspergillus niger, UniProt O00089).
T2 construct: Mono Q peak II
The experiment in a line: Inhibition of β-xylosidase X-II by xylose. It is filed as biochemical. The following applies: β-xylosidase X-II of the invention; read-out: inhibition Ki (mM xylosc). The protocol: as §1, §2

T2 sequence (O00089 27-804): as above

One may read the Ki as the dissociation constant of the complex between target and ligand, obtained from inhibition or displacement. Regarding xylose, the figures for the Ki in assay [1], in assay [2] and in assay [3] were 2.9 mM, 9.8 mM and 13.2 mM, respectively.
